Reference: ChEMBL document CHEMBL5584328, “Integrating computational and experimental chemical biology revealed variable anticancer activities of phosphodiesterase isoenzyme 5 inhibitors (PDE5i) in lung cancer” (RSC Med Chem, 2024)
pIC50: −log10 of the molar value. Active and inactive are the calls of the source. No cut-off for these calls is given here.

How the values were obtained:
A549 [1] = test: Antiproliferative activity against human A549 cells measured after 48 hrs by MTT assay; format: functional, cell-based; settings: for pIC50: A549, 48 h
NCI-H1299 [2] = test: Antiproliferative activity against human NCI-H1299 cells measured after 48 hrs by MTT assay; format: functional, cell-based; settings: for pIC50: NCI-H1299, 48 h
NCI-H661 [3] = test: Antiproliferative activity against human NCI-H661 cells measured after 48 hrs by MTT assay; format: functional, cell-based; settings: for pIC50: NCI-H661, 48 h
A549 [4] = test: Antiproliferative activity against human A549 cells measured after 24 hrs by MTT assay; format: functional, cell-based
A549 [5] = test: Antiproliferative activity against human A549 cells measured after 72 hrs by MTT assay; format: functional, cell-based
NCI-H1299 [6] = test: Antiproliferative activity against human NCI-H1299 cells measured after 24 hrs by MTT assay; format: functional, cell-based
NCI-H1299 [7] = test: Antiproliferative activity against human NCI-H1299 cells measured after 72 hrs by MTT assay; format: functional, cell-based
NCI-H661 [8] = test: Antiproliferative activity against human NCI-H661 cells measured after 24 hrs by MTT assay; format: functional, cell-based
NCI-H661 [9] = test: Antiproliferative activity against human NCI-H661 cells measured after 72 hrs by MTT assay; format: functional, cell-based
A549 [10] = test: Antiproliferative activity against human A549 cells by MTT assay; format: functional, cell-based; settings: time 24-72 hrs, TDE = time-dependent effect
NCI-H1299 [11] = test: Antiproliferative activity against human NCI-H1299 cells by MTT assay; format: functional, cell-based; settings: time 24-72 hrs, TDE = time-dependent effect
NCI-H661 [12] = test: Antiproliferative activity against human NCI-H661 cells by MTT assay; format: functional, cell-based; settings: time 24-72 hrs, TDE = time-dependent effect
A549 [13] = test: Potentiation of cisplatin-induced cytotoxicity against human A549 cells assessed as combination index at 1:4 ratio of cisplatin to compound measured after 48 hrs by MTT assay; format: functional
NCI-H1299 [14] = test: Potentiation of cisplatin-induced cytotoxicity against human NCI-H1299 cells assessed as combination index at 1:35 ratio of cisplatin to compound measured after 48 hrs by MTT assay; format: functional
NCI-H661 [15] = test: Potentiation of cisplatin-induced cytotoxicity against human NCI-H661 cells assessed as combination index at 1:14 ratio of cisplatin to compound measured after 48 hrs by MTT assay; format: functional
A549 [16] = test: Potentiation of cisplatin-induced cytotoxicity against human A549 cells assessed as fold reduction in cisplatin IC50 at 1:4 ratio of cisplatin to compound measured after 48 hrs by MTT assay relative to cisplatin alone; format: functional
NCI-H1299 [17] = test: Potentiation of cisplatin-induced cytotoxicity against human NCI-H1299 cells assessed as fold reduction in cisplatin IC50 at 1:35 ratio of cisplatin to compound measured after 48 hrs by MTT assay relative to cisplatin alone; format: functional
NCI-H661 [18] = test: Potentiation of cisplatin-induced cytotoxicity against human NCI-H661 cells assessed as fold reduction in cisplatin IC50 at 1:14 ratio of cisplatin to compound measured after 48 hrs by MTT assay relative to cisplatin alone; format: functional
A549 [19] = test: Potentiation of raloxifene-induced cytotoxicity against human A549 cells assessed as combination index at 1:2 ratio of raloxifene to compound measured after 48 hrs by MTT assay; format: functional
NCI-H1299 [20] = test: Potentiation of raloxifene-induced cytotoxicity against human NCI-H1299 cells assessed as combination index at 1:20 ratio of raloxifene to compound measured after 48 hrs by MTT assay; format: functional
NCI-H661 [21] = test: Potentiation of raloxifene-induced cytotoxicity against human NCI-H661 cells assessed as combination index at 1:7 ratio of raloxifene to compound measured after 48 hrs by MTT assay; format: functional
A549 [22] = test: Potentiation of raloxifene-induced cytotoxicity against human A549 cells assessed as fold reduction in raloxifene IC50 at 1:2 ratio of raloxifene to compound measured after 48 hrs by MTT assay relative to raloxifene alone; format: functional
NCI-H1299 [23] = test: Potentiation of raloxifene-induced cytotoxicity against human NCI-H1299 cells assessed as fold reduction in raloxifene IC50 at 1:20 ratio of raloxifene to compound measured after 48 hrs by MTT assay relative to raloxifene alone; format: functional
NCI-H661 [24] = test: Potentiation of raloxifene-induced cytotoxicity against human NCI-H661 cells assessed as fold reduction in raloxifene IC50 at 1:7 ratio of raloxifene to compound measured after 48 hrs by MTT assay relative to raloxifene alone; format: functional
NCI-H1299 [25] = test: Antimigratory activity against human NCI-H1299 cells assessed as reduction in wound closure measured after 24 hrs by wound healing assay; format: functional, cell-based
A549 [26] = test: Inhibition of colony formation in human A549 cells assessed as reduction in number of colonies at 52.5 to 105 uM measured after 48 hrs by colony formation assay; format: functional, cell-based; settings: dose 52.5-105 µM
A549 [27] = test: Inhibition of colony formation in human A549 cells assessed as reduction in size of colonies at 52.5 to 105 uM measured after 48 hrs by colony formation assay; format: functional, cell-based; settings: dose 52.5-105 µM
A549 [28] = test: Induction of apoptosis in human A549 cells assessed as increase in apoptotic cells at 210 uM measured after 48 hrs by Annexin V-FITC/PI staining based flow cytometry relative to control; format: functional
A549 [29] = test: Cell cycle arrest in human A549 cells assessed as increase in cell population at G2 phase at 52.5 uM measured after 48 hrs by propidium iodide staining based flow cytometry; format: functional
A549 [30] = test: Reduction in PDE5 gene expression in human A549 cells at 0.1 IC50 measured after 48 hrs by qRT-PCR analysis; format: functional, cell-based
A549 [31] = test: Reduction in Bcl-2 gene expression in human A549 cells at 0.1 IC50 measured after 48 hrs by qRT-PCR analysis; format: functional, cell-based
A549 [32] = test: Reduction in PDE5 protein expression in human A549 cells at 0.25 to 0.5 IC50 measured after 48 hrs by Western blot analysis; format: functional, cell-based

## CCCc1nn(C)c2c(=O)[nH]c(-c3cc(S(=O)(=O)N4CCN(C)CC4)ccc3OCC)nc12 [SILDENAFIL]
A549 [1]
  pIC50: < 3.30
NCI-H1299 [2]
  pIC50: < 3.30
NCI-H661 [3]
  pIC50: < 3.30

## CN1CC(=O)N2[C@H](c3ccc4c(c3)OCO4)c3[nH]c4ccccc4c3C[C@@H]2C1=O [TADALAFIL]
A549 [4]
  Activity: Dose-Dependent Effect
A549 [4]; A549, 24 h
  pIC50: 3.45
A549 [1]
  Activity: Dose-Dependent Effect
  pIC50: 3.98
A549 [5]
  Activity: Dose-Dependent Effect
A549 [5]; A549, 72 h
  pIC50: 4.13
NCI-H1299 [6]
  Activity: Dose-Dependent Effect
NCI-H1299 [6]; NCI-H1299, 24 h
  pIC50: 3.45
NCI-H1299 [2]
  Activity: Dose-Dependent Effect
  pIC50: 3.56
NCI-H1299 [7]
  Activity: Dose-Dependent Effect
NCI-H1299 [7]; NCI-H1299, 72 h
  pIC50: 3.90
NCI-H661 [8]
  Activity: Dose-Dependent Effect
NCI-H661 [8]; NCI-H661, 24 h
  pIC50: 3.06
NCI-H661 [3]
  Activity: Dose-Dependent Effect
  pIC50: 3.55
NCI-H661 [9]
  Activity: Dose-Dependent Effect
NCI-H661 [9]; NCI-H661, 72 h
  pIC50: 3.61
A549 [10]
  Activity: Tde
NCI-H1299 [11]
  Activity: Tde
NCI-H661 [12]
  Activity: Tde
A549 [13]
  CI: 0.92
NCI-H1299 [14]
  CI: 0.78
NCI-H661 [15]
  CI: 0.89
A549 [16]
  fold change (FC): 2.1
NCI-H1299 [17]
  fold change (FC): 2.6
NCI-H661 [18]
  fold change (FC): 2
A549 [19]
  CI: 0.98
NCI-H1299 [20]
  CI: 0.44
NCI-H661 [21]
  CI: 0.89
A549 [22]
  fold change (FC): 1.9
NCI-H1299 [23]
  fold change (FC): 5.2
NCI-H661 [24]
  fold change (FC): 2.1
NCI-H1299 [25]
  Activity: Dose-Dependent Effect
A549 [26]
  inhibition: Active
A549 [27]
  inhibition: Active
A549 [28]
  Activity: 22.2%
A549 [29]
  Activity: Active
A549 [30]
  Activity: Active
A549 [31]
  Activity: Active
A549 [32]
  Activity: Dose-Dependent Effect
